Data as given in patent US9434711B2 (Janssen Pharmaceutica, NV, priority 2007, dated 2016).

What was measured:
male Sprague-Dawley rats = assay: Cold-Evoked Cardiovascular Pressor Responses (anesthetized rat cold pressor paradigm); type: in vivo; conditions: HPbCD, 1.5 hours relative to Cold Challenge, Na salt form
Excerpt: Compounds of the formula (I) can be tested in animals and humans for their ability to mitigate cardiovascular pressor responses evoked by cold exposure. Seasonal environmental cooling is directly associated with elevated blood pressure and an increased incidence of coronary events in human populations worldwide (Barnett, A G et al. J Epidemiol Community Heath 2005, 59 551-557). Cold-evoked pulmonary hypertention and cold aggravation of chronic obstructive pulmonary disease are clinical indications susceptible to heightened cardiopulmonary sensitivity to cold (Marno P et al. Eur Respiratory Review 2006, 15 (101): 185.; Acikel M et al Int J of Cardiol (2004) 97: 187-192). The clinical cold pressor test assesses changes in blood pressure (BP) and cold pain perception during a 2-3 minute immersion of one hand into ice water. […] Compounds of the formula (I) can be studied in an anesthetized rat cold pressor paradigm to determine whether TRPM8 antagonism would interfere with the blood pressure pressor response to cold stimulation of the forepaws. Male Sprague-Dawley rats (300-450 g) anesthetized with sodium pentobarbital are instrumented with a jugular catheter and an indwelling carotid artery cannula connected to a pressure transducer. Vehicle (e.g. 20% HPbCD in sterile water) or test compound is infused (1 mL/kg) over one minute through the intravenous catheter. Ten minutes later both forelimbs are packed in crushed ice for 5 minutes. Alternatively, the test compound and vehicle treatments may be administered orally at an appropriated time prior to the surgical cannulations and cold challenge. Percent changes in mean arterial pressure in response to this cold stimulus are calculated for vehicle and test compound pretreatments. Percent inhibition attributed to treatment with test compound is then determined using the following formula: % Inhibition=[1−(cold evoked % change in BP post-test compound/cold evoked % change in BP post-vehicle)]×100.

Male Sprague Dawley rats = assay: Rightward Shift of Icilin Dose Effect Curve in Rats; type: in vivo; conditions: Rattus norvegicus; compound 3 mg/kg p.o., 60 pre-icilin; icilin i.p.; read-out: Icilin ED50, mg/kg, i.p., compound pretreatment
Method: Male Sprague Dawley rats (200-400 g, Charles River Labs, n=6-9/treatment) were administered icilin in a suitable vehicle (e.g. PEG-400, 10% Solutol) at 0.1-30 mg/kg, i.p. Spontaneous “wet-dog” shakes were counted 10-20 minutes post-icilin in order to generate a icilin dose-effect curve. A compound of the present invention was administered orally in hydroxypropyl-β-cyclodextrin 60 minutes before icilin challenge to assess the compound's ability to inhibit spontaneous “wet-dog” shakes (WDS) produced by a range of icilin doses. The ED50 of the icilin dose-effect curve generated in the presence of TRPM8 antagonist may be compared to that generated in the presence of vehicle to determine the magnitude of rightward shift as shown below in Table 7.

`Cc1c(N(Cc2ccc(F)c(C(F)(F)F)c2)S(=O)(=O)c2ccc(C(=O)O)cc2)sc2ccccc12` [Compound 306, N-(3-Methyl-benzo[b]thiophen-2-yl)-N-(4-fluoro-3-trifluoromethyl-benzyl)-4-carboxy-benzenesulfonamide] was tested, and the “Percent Inhibition, relative to vehicle” value (male Sprague-Dawley rats; dose 1 p.o.) was 16%, the “Percent Inhibition, relative to vehicle” value (male Sprague-Dawley rats; dose 3 p.o.) was 41% and the “Percent Inhibition, relative to vehicle” value (male Sprague-Dawley rats; dose 10 p.o.) was 62%. The “Percent Inhibition, relative to vehicle” value (male Sprague-Dawley rats; dose 30 p.o.) was 75% and the ED50 (Male Sprague Dawley rats) was 2.96 mg/kg.
